Measurements taken from ChEMBL document CHEMBL1133550, “(2,2':6',2"-Terpyridine)platinum(II) complexes are irreversible inhibitors of Trypanosoma cruzi trypanothione reductase but not of human glutathione reductase” (J Med Chem, 2000).
Activity calls are given as the source filed them. No cut-off for these calls is given here.

How the values were obtained:
[1] = Half-life was measured in the presence of NADPH at 20 uM; assay type: ADME
[2] = target: Trypanothione reductase (Trypanosoma cruzi) (UniProt P28593); test: Tested for inhibition of NADPH-reduced trypanothione reductase (TR)
UniProt P28593, sequence (P28593 whole entry, looked up): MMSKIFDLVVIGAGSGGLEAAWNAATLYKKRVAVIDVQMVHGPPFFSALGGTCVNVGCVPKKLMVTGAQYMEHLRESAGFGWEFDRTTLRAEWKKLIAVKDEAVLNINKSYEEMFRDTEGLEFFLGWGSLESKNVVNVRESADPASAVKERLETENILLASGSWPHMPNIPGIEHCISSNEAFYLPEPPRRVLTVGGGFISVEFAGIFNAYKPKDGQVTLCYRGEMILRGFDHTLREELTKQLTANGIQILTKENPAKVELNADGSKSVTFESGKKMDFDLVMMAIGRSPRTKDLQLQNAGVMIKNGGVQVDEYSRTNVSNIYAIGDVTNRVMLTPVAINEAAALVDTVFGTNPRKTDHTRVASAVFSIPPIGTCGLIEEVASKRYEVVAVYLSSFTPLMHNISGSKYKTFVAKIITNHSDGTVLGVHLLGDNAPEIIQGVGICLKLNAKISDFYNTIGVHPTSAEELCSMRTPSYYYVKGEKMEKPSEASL

[3] = Half-life was measured in the presence of NADPH at 20 uM; No inhibition; assay type: ADME
[4] = target: Trypanothione reductase (Trypanosoma cruzi) (UniProt P28593); test: Tested for inhibition of NADPH-reduced trypanothione reductase (TR); No inhibition

T1/2 [1]	K obs [2]	Substance	further results
35 min	–	(2-Hydroxyethanethiolato)(2,2':6'2''-terpyridine)platinum (II) Nitrate [listing 1 of 2 here]	–
–	40 M⁻¹ s⁻¹	(2-Hydroxyethanethiolato)(2,2':6'2''-terpyridine)platinum (II) Nitrate [listing 2 of 2 here]	–
11 min	–	(4-Picoline)(2,2':6'2''-terpyridine)platinum (II) Bis (tetrafluoroborate) [listing 1 of 2 here]	–
–	85 M⁻¹ s⁻¹	(4-Picoline)(2,2':6'2''-terpyridine)platinum (II) Bis (tetrafluoroborate) [listing 2 of 2 here]	–
–	–	(S-Glutathionato)-(4'-Chloro-2,2':6'2''-terpyridine)platinum (II) Nitrate [listing 1 of 2 here]	NI [3]: Not Active
–	–	(S-Glutathionato)-(4'-Chloro-2,2':6'2''-terpyridine)platinum (II) Nitrate [listing 2 of 2 here]	NI [4]: inactive
